Assay results reported in US10960005B2, “Treatment of relapsed and/or refractory solid tumors and non-hodgkin's lymphomas” (CELGENE QUANTICEL RESEARCH, INC., priority 2016, dated 2021).

Experiments:
NCI-H841 SCLC cell line = test: Antiproliferative activity, NCI-H841; type: cell-based, human; details: 3D assay; Calcein AM
[1] = Pharmacokinetics after single IV and oral dose, Sprague Dawley rats; type: in vivo; details: Rat, female
Experimental: AUClast=area under the plasma concentration-time curve from time zero to time of last measurable concentration; Cmax=maximum plasma concentration; F=oral bioavailability; hr=hour, PK=pharmacokinetic; SD=standard deviation; t1/2 z=apparent half-life of the terminal phase of the concentration-time curve; tmax=time of Cmax. In mouse, PK parameters were determined using composite plasma samples obtained from n=3animals/time point. In other species, PK parameters are from n=3 animals and values shown are mean and SD (in parentheses).

[2] = 4-week toxicity study (no recovery period) in dogs (QW/Q2W); type: in vivo; details: for AUC0-96 / Cmax: Dogs
Description: All animals survived to the terminal sacrifice.

[3] = system: LU2514 SCLC patient-derived xenograft; test: Efficacy in LU2514 HuPrime SCLC PDX model; type: in vivo, mice; details: Day 28
Experimental: Tumor growth inhibition analysis was performed on Day 28 post treatment, the last day of dosing.
In both studies with LU2514 animal model.

[4] = system: LU2527 lung NEC patient-derived xenograft; test: Efficacy in LU2527 lung neuroendocrine carcinoma PDX model; details: 5 mg base/kg PO QD; Day 46
[5] = 4-week oral gavage toxicity study with 4-week recovery in dogs (QW/BIW); details: for mean AUC0-168 / mean Cmax: 0.375 mg base/kg/dose QW; for Steady state Cmax: 0.75 mg base/kg/dose QW
[6] = system: gene expression (ST18, FREM2) in MS-1 cells; test: Gene expression modulation (RNA-seq, qRT-PCR) in cultured MS-1 cells; type: cell-based, human; details: 10 and 100 nM, three days
Experimental: 22, 66, or 200 nM for qRT-PCR analysis.
Libraries were sequenced on an Illumina NextSeq® 500 System (Illumina, San Diego, Calif.) using 75 base paired-end RNA sequencing. Sequenced reads were mapped to the hg19 human genome build and differential expression was determined by analysis of variance across all replicates relative to the vehicle control
Sequenced reads were mapped to the hg19 human genome build using the Spliced Transcripts Alignment to a Reference (STAR) software tool (©Alexander Dobin, 2009-2016) and transcript counts were normalized using the Empirical Analysis of Digital Gene Expression Data in R (edgeR) and Differential gene expression analysis based on the negative binomial distribution (DESeq2) software tools (©Bioconductor, 2003-2017). Differential expression was determined by analysis of variance across all replicates relative to the vehicle control.

[7] = Exploratory toxicity study in dogs; type: in vivo; details: 0.5 mg/kg/dose QOD
[8] = 4-week toxicity study with 4-week recovery in mice; type: in vivo; details: for AUC0-24 / Cmax: Mice
[9] = Day 1, 0.125 mg base/kg/dose oral QW, Sexes Combined
[10] = Day 1, 0.25 mg base/kg/dose oral QW, M
[11] = Day 1, 0.5 mg base/kg/dose oral Q2W, M
[12] = Day 15, 0.125 mg base/kg/dose oral QW, F
[13] = Day 15, 0.125 mg base/kg/dose oral QW, M
[14] = Day 15, 0.125 mg base/kg/dose oral QW, Sexes Combined
[15] = 0.375 mg base/kg/dose BIW, males, Day 22
[16] = Dogs, Day 1, 0.75 mg base/kg/dose oral once weekly, M
[17] = Dogs, Day 1, 1.5 mg base/kg/dose oral once weekly, F
[18] = Dogs, Day 1, 1.5 mg base/kg/dose oral once weekly, M
[19] = Dogs, Day 22, 0.375 mg base/kg/dose oral once weekly, F
[20] = Dogs, Day 22, 0.375 mg base/kg/dose oral once weekly, M
[21] = Dogs, Day 22, 0.375 mg base/kg/dose oral twice weekly, M
[22] = Dogs, Day 22, 0.75 mg base/kg/dose oral once weekly, F
[23] = Dogs, Day 22, 0.75 mg base/kg/dose oral once weekly, M
[24] = QW or BIW schedule, not determined
[25] = 5 mg base/kg/dose QD×5/week, females
[26] = 5 mg base/kg/dose QD×5/week, males
[27] = 25 mg base/kg/dose QOD×3/week, females
[28] = 45 mg base/kg/dose QD×5/week, females
[29] = 45 mg base/kg/dose QD×5/week, males
[30] = Day 1, 15 mg base/kg/dose oral, 5 days on/2 days off, F
[31] = Day 26, 5 mg base/kg/dose oral, 5 days on/2 days off, F
[32] = Day 26, 5 mg base/kg/dose oral, 5 days on/2 days off, M
[33] = Day 26, 15 mg base/kg/dose oral, 5 days on/2 days off, M
[34] = Day 26, 25 mg base/kg/dose oral, QOD × 3/week, F
[35] = Day 26, 25 mg base/kg/dose oral, QOD × 3/week, M
[36] = Day 26, 45 mg base/kg/dose oral, 5 days on/2 days off, F
[37] = Day 26, 45 mg base/kg/dose oral, 5 days on/2 days off, M

In the case of `COc1ccc(-c2c(-c3ccc(C#N)c(F)c3)nc(N3CCC(N)CC3)n(C)c2=O)cc1F` [Compound A], the IC50 (NCI-H841 SCLC cell line) is reported as over 500 µM, the “AUC∞” value ([1]; single IV 5 mg base/kg) is reported as 733 ng·h/mL and the CL ([1]; single IV 5 mg base/kg) is reported as 115 mL/min/kg. The Vss ([1]; single IV 5 mg base/kg) was 0.2625 L/kg, the “t1/2,z” value ([1]; single IV 5 mg base/kg) was 3.6 h and the “% F” value ([1]; single oral 5 mg base/kg) was 33%. The AUClast ([1]; single oral 5 mg base/kg) was 222 ng·h/mL, the Cmax ([1]; single oral 5 mg base/kg) was 47 ng/mL and the “t1/2,z” value ([1]; single oral 5 mg base/kg) was 3.0 h. The tmax ([1]; single oral 5 mg base/kg) was 2.0 h, the “% F” value ([1]; single oral 15 mg base/kg) was 28% and the AUClast ([1]; single oral 15 mg base/kg) was 570 ng·h/mL. For the same compound, the Cmax ([1]; single oral 15 mg base/kg) was 123 ng/mL, the “t1/2,z” value ([1]; single oral 15 mg base/kg) was 2.9 h and the tmax ([1]; single oral 15 mg base/kg) was 2.0 h. The “% F” value ([1]; single oral 50 mg base/kg) was 74%, the AUClast ([1]; single oral 50 mg base/kg) was 4652 ng·h/mL and the Cmax ([1]; single oral 50 mg base/kg) was 621 ng/mL. The “t1/2,z” value ([1]; single oral 50 mg base/kg) was 3.0 h, the tmax ([1]; single oral 50 mg base/kg) was 6.0 h and the “combined Day 15 mean AUC” value ([2]; 0.125 mg base/kg/dose QW) was 127 ng·h/mL. The “combined Day 15 mean Cmax” value ([2]; 0.125 mg base/kg/dose QW) was 5.26 ng/mL, the “combined Day 15 mean AUC” value ([2]; 0.25 mg base/kg/dose QW) was 287 ng·h/mL and the “combined Day 15 mean Cmax” value ([2]; 0.25 mg base/kg/dose QW) was 11.0 ng/mL. The “combined Day 15 mean AUC” value ([2]; 0.5 mg base/kg/dose Q2W) was 636 ng·h/mL, the “combined Day 15 mean Cmax” value ([2]; 0.5 mg base/kg/dose Q2W) was 22.0 ng/mL and the AUC0-96 ([2]; Day 1, 0.125 mg base/kg/dose oral QW, F) was 127 ng·h/mL. It also gave an AUC0-96 [2, 9] of 120 ng·h/mL, a Cmax [2, 9] of 5.79 ng/mL and an AUC0-96 [2, 10] of 335 ng·h/mL. It also gave a Cmax [2, 10] of 11.9 ng/mL, a Cmax ([2]; Day 1, 0.25 mg base/kg/dose oral QW, Sexes Combined) of 12.0 ng/mL and a Cmax ([2]; Day 1, 0.5 mg base/kg/dose oral Q2W, F) of 26.6 ng/mL. For the same compound, the AUC0-96 [2, 11] was 762 ng·h/mL, the Cmax [2, 11] was 24.0 ng/mL and the Cmax ([2]; Day 1, 0.5 mg base/kg/dose oral Q2W, Sexes Combined) was 25.3 ng/mL. It also gave an AUC0-96 [2, 12] of 141 ng·h/mL, a Cmax [2, 12] of 5.54 ng/mL and an AUC0-96 [2, 13] of 107 ng·h/mL. The Cmax [2, 13] was 4.89 ng/mL, the AUC0-96 [2, 14] was 127 ng·h/mL and the Cmax [2, 14] was 5.26 ng/mL. For the same compound, the Cmax ([2]; Day 15, 0.25 mg base/kg/dose oral QW, Sexes Combined) was 11.0 ng/mL, the Cmax ([2]; Day 15, 0.5 mg base/kg/dose oral Q2W, Sexes Combined) was 22.0 ng/mL and the treatment-related adverse finding ([2]; single female, 0.25 mg base/kg/dose QW) was “Moderate acute inflammation in the ileum and marked acute inflammation in the cecum”. The “% TGI” value ([3]; 5 mg base/kg PO QD × 28) was 43%, the “% TGI” value ([3]; 10 mg base/kg PO QD × 28) was 61% and the “% TGI” value [4] was 84%. The Cmax ([5]; 0.375 mg base/kg/dose BIW, females, Day 22) was 19.0 ng/mL, the Cmax [5, 15] was 17.7 ng/mL and the “mean AUC0-72” value [5, 15] was 307 ng·h/mL. The “mean AUC0-168” value ([5]; females, Day 22) was 269 ng·h/mL, the “mean Cmax” value ([5]; females, Day 22) was 15.5 ng/mL and the “mean AUC0-168” value ([5]; males, Day 22) was 384 ng·h/mL. For the same compound, the “mean Cmax” value ([5]; males, Day 22) was 21.9 ng/mL, the “Steady state Cmax” value ([5]; females) was 40.8 ng/mL and the “Steady state Cmax” value ([5]; males) was 36.2 ng/mL. It also gave an AUC0-168 ([5]; Dogs, Day 1, 0.375 mg base/kg/dose oral once weekly, M) of 503 ng·h/mL, an AUC0-72 ([5]; Dogs, Day 1, 0.375 mg base/kg/dose oral twice weekly, M) of 420 ng·h/mL and an AUC0-168 ([5]; Dogs, Day 1, 0.75 mg base/kg/dose oral once weekly, F) of 1180 ng·h/mL. It also gave an AUC0-168 [5, 16] of 955 ng·h/mL, a Cmax [5, 16] of 34 ng/mL and an AUC0-168 [5, 17] of 2680 ng·h/mL. For the same compound, the Cmax [5, 17] was 80.0 ng/mL, the AUC0-168 [5, 18] was 2530 ng·h/mL and the Cmax [5, 18] was 90.6 ng/mL. The AUC0-168 [5, 19] was 269 ng·h/mL, the Cmax [5, 19] was 15.5 ng/mL and the AUC0-168 [5, 20] was 384 ng·h/mL. The Cmax [5, 20] was 21.9 ng/mL, the Cmax ([5]; Dogs, Day 22, 0.375 mg base/kg/dose oral twice weekly, F) was 19.0 ng/mL and the AUC0-72 [5, 21] was 307 ng·h/mL. For the same compound, the Cmax [5, 21] was 17.7 ng/mL, the AUC0-168 [5, 22] was 719 ng·h/mL and the Cmax [5, 22] was 40.8 ng/mL. It also gave an AUC0-168 [5, 23] of 645 ng·h/mL, a Cmax [5, 23] of 36.2 ng/mL and an HNSTD [5, 24] of under 0.375 mg base/kg/dose. For the same compound, the NOAEL [5, 24] was under 0.375 mg base/kg/dose, the moribund euthanasia ([5]; weekly oral 0.375-1.5 mg base/kg/dose, between study Days 13 and 23) was 11 animals and the primary toxicities ([5]; ≥0.375 mg base/kg/dose, QW or BIW) was “mucosal ulceration, acute and/or subacute inflammation, and mucosal epithelial atrophy ofGI tract tissues”. The “ST18 and FREM2 gene expression changes (upregulated)” value [6] was “at least 2 fold”, the primary findings [7] was “Marked thrombocytopenia and acute hemorrhage in mesenteric and mandibular lymph nodes” and the “mean steady state AUC0-24” value [8, 25] was 2,410 ng·hr/mL. The “mean steady state Cmax” value [8, 25] was 276 ng/mL, the “mean steady state AUC0-24” value [8, 26] was 2,010 ng·hr/mL and the “mean steady state Cmax” value [8, 26] was 276 ng/mL. For the same compound, the “mean steady state AUC0-24” value [8, 27] was 17,500 ng·hr/mL, the “mean steady state Cmax” value [8, 27] was 1,740 ng/mL and the “mean steady state Cmax” value ([8]; 25 mg base/kg/dose QOD×3/week, males) was 1,450 ng/mL. The “animals sacrificed in moribund condition” value ([8]; 45 mg base/kg/dose QD×5/week, 4 males and 1 female, TK subgroup) was “Five”, the “mean steady state AUC0-24” value [8, 28] was 26,500 ng·hr/mL and the “mean steady state Cmax” value [8, 28] was 2,130 ng/mL. For the same compound, the “mean steady state AUC0-24” value [8, 29] was 29,000 ng·hr/mL, the “mean steady state Cmax” value [8, 29] was 2,620 ng/mL and the AUC0-24 ([8]; Day 1, 5 mg base/kg/dose oral, 5 days on/2 days off, F) was 1500 ng·h/mL. For the same compound, the Cmax ([8]; Day 1, 5 mg base/kg/dose oral, 5 days on/2 days off, M) was 230 ng/mL, the AUC0-24 [8, 30] was 9680 ng·h/mL and the Cmax [8, 30] was 850 ng/mL. It also gave an AUC0-24 ([8]; Day 1, 15 mg base/kg/dose oral, 5 days on/2 days off, M) of 13000 ng·h/mL, an AUC0-24 [8, 31] of 2410 ng·h/mL and a Cmax [8, 31] of 276 ng/mL. For the same compound, the AUC0-24 [8, 32] was 2010 ng·h/mL, the Cmax [8, 32] was 275 ng/mL and the AUC0-24 [8, 33] was 7960 ng·h/mL. The Cmax [8, 33] was 628 ng/mL, the AUC0-24 [8, 34] was 17500 ng·h/mL and the Cmax [8, 34] was 1740 ng/mL. For the same compound, the AUC0-24 [8, 35] was 17800 ng·h/mL, the Cmax [8, 35] was 1450 ng/mL and the AUC0-24 [8, 36] was 26500 ng·h/mL. For the same compound, the Cmax [8, 36] was 2130 ng/mL, the AUC0-24 [8, 37] was 29000 ng·h/mL and the Cmax [8, 37] was 2620 ng/mL. The STD10 ([8]; QD ×5/week schedule) was at least 45 mg base/kg/dose.
